Results reported in US7294646B2, “Maxi-k channel blockers, methods of use and process for making the same” (Merck & Co. Inc., priority 2002, dated 2007).

What was measured:
[1] = tested on: Normotensive Dutch Belted rabbits; experiment: Intraocular pressure (IOP) measurements in rabbits; format: in vivo, rabbit; conditions: for reduction of IOP: 25 μl, normal Dutch Belted rabbits; for ocular hypotensive response (significance): all doses (0.5, 0.1 and 0.01%); for ocular hypotensive response (significance) / contralateral effect on IOP (fellow eye): topical, Dutch Belted rabbits; for contralateral effect on IOP (fellow eye): all doses tested (0.5, 0.1 and 0.01%)
Protocol: Intraocular Pressure (IOP) Measurements in Rabbits
Normotensive Dutch Belted rabbits (2.3 kg) of either sex were maintained on a 12-hour light/dark cycle during these experiments. Intraocular pressure (IOP) was measured using a calibrated pneumatonometer (Alcon Applanation Pneumatonograph), and results expressed in millimeters of mercury (mmHg). Before tonometry, one drop of 0.05% proparacaine was applied to the corneas to minimize any discomfort to the animal. Two base-line (control) readings were taken at (−0.5 and 0 hr.) after which Compounds I, Ia or II were administered topically (unilaterally applied into the conjunctival sac) in a 25 μl volume with the contralateral (fellow) eye receiving an equal volume of vehicle. A masked design was utilized, where the person involved in drug administration and measurement of IOP had no knowledge of the solutions' contents. Subsequently, IOP measurements were taken at 0.5, 1, 2, 3, 4, 5 and 6 hr after topical applications of drug. At the end of each day's measurements, stability of the tonometer was determined using the calibrator/verifier.

[2] = target: T1, Maxi-K channel (alpha and beta1 subunits) (Homo sapiens, UniProt Q12791); experiment: FRET (VIPR) membrane potential assay in HEK-293 cells transfected with alpha and beta1 subunits of the maxi-K channel; format: cell-based
T1 construct: expressed in transfected cells
T1 sequence (Q12791 whole entry): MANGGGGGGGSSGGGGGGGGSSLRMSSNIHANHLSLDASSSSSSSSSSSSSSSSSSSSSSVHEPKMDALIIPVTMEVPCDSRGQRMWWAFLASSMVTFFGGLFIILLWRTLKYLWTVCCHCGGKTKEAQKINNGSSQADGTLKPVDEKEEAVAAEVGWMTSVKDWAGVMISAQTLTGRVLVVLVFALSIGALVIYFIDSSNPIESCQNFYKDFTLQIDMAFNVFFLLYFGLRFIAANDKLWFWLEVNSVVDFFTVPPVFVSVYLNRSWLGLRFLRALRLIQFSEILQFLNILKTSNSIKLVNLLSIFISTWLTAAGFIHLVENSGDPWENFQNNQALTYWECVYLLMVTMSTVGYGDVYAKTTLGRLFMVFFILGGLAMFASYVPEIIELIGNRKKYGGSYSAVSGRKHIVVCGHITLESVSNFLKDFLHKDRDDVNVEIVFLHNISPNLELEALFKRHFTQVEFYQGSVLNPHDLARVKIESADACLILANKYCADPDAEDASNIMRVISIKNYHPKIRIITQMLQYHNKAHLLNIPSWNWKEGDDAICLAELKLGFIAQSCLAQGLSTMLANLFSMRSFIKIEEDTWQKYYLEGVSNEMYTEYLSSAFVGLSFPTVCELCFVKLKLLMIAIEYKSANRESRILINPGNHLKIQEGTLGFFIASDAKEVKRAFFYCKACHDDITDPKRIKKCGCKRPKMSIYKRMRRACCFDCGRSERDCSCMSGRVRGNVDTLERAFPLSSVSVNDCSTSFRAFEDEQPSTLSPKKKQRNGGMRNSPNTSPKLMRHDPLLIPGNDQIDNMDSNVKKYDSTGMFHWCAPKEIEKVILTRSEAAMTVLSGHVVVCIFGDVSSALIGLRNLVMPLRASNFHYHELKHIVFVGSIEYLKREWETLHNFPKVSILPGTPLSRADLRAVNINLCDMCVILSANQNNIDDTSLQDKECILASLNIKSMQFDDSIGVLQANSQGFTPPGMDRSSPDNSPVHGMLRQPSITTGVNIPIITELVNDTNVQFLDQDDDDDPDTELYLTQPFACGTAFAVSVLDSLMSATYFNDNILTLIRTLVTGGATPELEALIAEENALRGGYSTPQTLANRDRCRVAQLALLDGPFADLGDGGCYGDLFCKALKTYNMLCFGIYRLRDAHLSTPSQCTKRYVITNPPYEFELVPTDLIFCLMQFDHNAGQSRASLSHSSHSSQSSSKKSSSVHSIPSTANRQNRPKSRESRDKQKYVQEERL
T1 sequence (Q16558 whole entry partner): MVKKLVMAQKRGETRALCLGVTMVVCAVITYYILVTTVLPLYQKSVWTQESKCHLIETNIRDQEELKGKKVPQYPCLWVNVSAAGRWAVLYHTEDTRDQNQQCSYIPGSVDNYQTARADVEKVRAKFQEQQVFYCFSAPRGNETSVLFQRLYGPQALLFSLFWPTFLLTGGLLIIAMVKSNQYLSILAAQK
Protocol: The identification of inhibitors of the Maxi-K channel is based on the ability of expressed Maxi-K channels to set cellular resting potential after transfection of both alpha and beta1 subunits of the channel in HEK-293 cells and after being incubated with potassium channel blockers that selectively eliminate the endogenous potassium conductances of HEK-293 cells. In the absence of Maxi-K channel inhibitors, the transfected HEK-293 cells display a hyperpolarized membrane potential, negative inside, close to EK (−80 mV) which is a consequence of the activity of Maxi-K channels. Blockade of the Maxi-K channel by incubation with Maxi-K channel blockers will cause cell depolarization. Changes in membrane potential can be determined with voltage-sensitive fluorescence resonance energy transfer (FRET) dye pairs that use two components, a donor coumarin (CC2DMPE) and an acceptor oxanol (DiSBAC2(3)).
Oxanol is a lipophilic anion and distributes across the membrane according to membrane potential. Under normal conditions, when the inside of the cell is negative with respect to the outside, oxanol is accumulated at the outer leaflet of the membrane and excitation of coumarin will cause FRET to occur. Conditions that lead to membrane depolarization will cause the oxanol to redistribute to the inside of the cell, and, as a consequence, a decrease in FRET. […]

[3] = target: T2, high-conductance calcium-activated potassium (Maxi-K) channels (Homo sapiens, UniProt Q12791); experiment: Patch clamp recordings of Maxi-K channel currents in excised inside-out membrane patches; format: cell-based; conditions: 1 nM concentration applied to internal side of excised inside-out patch; held at -80 mV, steps to +50 mV
T2 construct: expressed in transfected cells; host or cells: CHO cells (α alone) or HEK293 cells (α and β1)
T2 sequence (Q12791 whole entry): as the sequence (Q12791 whole entry) above
From the text: Electrophysiological Assays of Compound Effects on High-conductance Calcium-activated Potassium Channels
Patch clamp recordings of currents flowing through high-conductance calcium-activated potassium (Maxi-K) channels were made from membrane patches excised from CHO cells constitutively expressing the α-subunit of the Maxi-K channel or HEK293 cells constitutively expressing both α- and β1-subunits using conventional techniques (Hamill et al., 1981, Pflügers Archiv. 391, 85-100) at room temperature. Glass capillary tubing (Garner #7052) was pulled in two stages to yield micropipettes with tip diameters of approximately 1-2 microns. Pipettes were typically filled with solutions containing (mM): 150 KCl, 10 Hepes (4-(2-hydroxyethyl)-1-piperazine […]), 1 Mg, 0.01 Ca, and adjusted to pH 7.20 with 3.7 mM KOH. After forming a high resistance (>10^9 ohms) seal between the plasma membrane and the pipette, the pipette was withdrawn from the cell, forming an excised inside-out membrane patch. […]
The effects of the compounds of the present invention on Maxi-K channels were examined in excised inside-out membrane patches. […] The fraction of channels blocked in each experiment was calculated from the reduction in peak current caused by application of the specified compound to the internal side of the membrane patch. […]

[4] = 0.01% unilateral topical application
[5] = 0.1% unilateral topical application
[6] = 0.5% unilateral topical application

Compound	reduction of IOP [1, 4] [mmHg]	reduction of IOP [1, 5] [mmHg]	reduction of IOP [1, 6] [mmHg]	ocular hypotensive response (significance) [1]	contralateral effect on IOP (fellow eye) [1]	IC50 [2] [nM]	decrease in Maxi-K channel currents [3] [%]
CC(C)C[C@@H](C(=O)O[C@H]1C[C@H]2Cc3c([nH]c4ccccc34)[C@]2(C)[C@@]2(C)CC[C@@]34O[C@@H](C(=O)C=C3[C@]12O)C(C)(C)O4)N(C)C [Compound Ia]	3	3.3	3.7	significant	significant contralateral effect	≤ 100	88
CC(C)[C@@H](C(=O)O[C@H]1C[C@H]2Cc3c([nH]c4ccccc34)[C@]2(C)[C@@]2(C)CC[C@@]34O[C@@H](C(=O)C=C3[C@]12O)C(C)(C)O4)N(C)C [Ib]	3	3.3	3.7	significant	significant contralateral effect	≤ 100	–
